Assay results as given in ChEMBL document CHEMBL3885881, “DrugMatrix”.

Organism: Rattus norvegicus
Test: DrugMatrix - Regimen: Daily Repeat
Type: toxicity, organism-based, Sprague-Dawley
Parameters: regimen Daily Repeat, gender Male, age 6-8 weeks
Settings: in vivo, po, route oral GAVAGE, vehicle .5 % CMC; for ABSOLUTE BASOPHIL / ABSOLUTE EOSINOPHIL / ABSOLUTE LYMPHOCYTE / ABSOLUTE MONOCYTE / ABSOLUTE SEGMENTED NEUTROPHIL / BASOPHIL / EOSINOPHIL / ERYTHROCYTE COUNT / HEMATOCRIT / HEMOGLOBIN / LEUKOCYTE COUNT / LYMPHOCYTE / MEAN CORPUSCULAR HEMOGLOBIN / MEAN CORPUSCULAR HEMOGLOBIN CONCENTRATION / MEAN CORPUSCULAR VOLUME / MONOCYTE / NEUTROPHIL / NUCLEATED RED BLOOD CELLS / PLATELET COUNT: tissue Blood; for ALANINE AMINOTRANSFERASE / ALBUMIN / ALKALINE PHOSPHATASE / ASPARTATE AMINOTRANSFERASE / BLOOD UREA NITROGEN / CARBON DIOXIDE / CHLORIDE / CHOLESTEROL / CREATINE PHOSPHOKINASE / CREATININE / GLUCOSE / LACTATE DEHYDROGENASE / LIPASE / PHOSPHORUS / POTASSIUM / SODIUM / TOTAL BILIRUBIN / TOTAL PROTEIN / URIC ACID: tissue Plasma
[1] = 15 mg/kg, 120 h, dose level Low, time 5 day
[2] = 1500 mg/kg, 72 h, dose level High, time 3 day
[3] = 1500 mg/kg, 120 h, dose level High, time 5 day

## COC(=O)c1ccc(O)cc1 [METHYLPARABEN]
[1]
  ABSOLUTE BASOPHIL: 0 CELLS/uL
  ABSOLUTE EOSINOPHIL: 60.67 CELLS/uL
  ABSOLUTE LYMPHOCYTE: 12673.33 CELLS/uL
  ABSOLUTE MONOCYTE: 0 CELLS/uL
  ABSOLUTE SEGMENTED NEUTROPHIL: 1232.67 CELLS/uL
  BASOPHIL: 0%
  EOSINOPHIL: 0.33%
  ERYTHROCYTE COUNT: 5.42 x10E6/uL
  HEMATOCRIT: 34.93%
  HEMOGLOBIN: 13.97 G/DL
  LEUKOCYTE COUNT: 13.97 x10E3/uL
  LYMPHOCYTE: 91%
  MEAN CORPUSCULAR HEMOGLOBIN: 25.8 pg
  MEAN CORPUSCULAR HEMOGLOBIN CONCENTRATION: 40 G/DL
  MEAN CORPUSCULAR VOLUME: 64.4 fL
  MONOCYTE: 0%
  NEUTROPHIL: 8.67%
  NUCLEATED RED BLOOD CELLS: 0 /100WBC
  PLATELET COUNT: 1233.67 x10E3/uL
  ALANINE AMINOTRANSFERASE: 58.67 u/L
  ALBUMIN: 3.9 G/DL
  ALKALINE PHOSPHATASE: 392.67 u/L
  ASPARTATE AMINOTRANSFERASE: 87.33 u/L
  BLOOD UREA NITROGEN: 17.67 mg/dL
  CARBON DIOXIDE: 26 mmol/L
  CHLORIDE: 101.67 MEQ/L
  CHOLESTEROL: 65.33 mg/dL
  CREATINE PHOSPHOKINASE: 524 u/L
  CREATININE: 0.12 mg/dL
  GLUCOSE: 151 mg/dL
  LACTATE DEHYDROGENASE: 137.67 u/L
  LIPASE: 9.33 u/L
  PHOSPHORUS: 14.13 mg/dL
  POTASSIUM: 6.95 MEQ/L
  SODIUM: 142.07 MEQ/L
  TOTAL BILIRUBIN: 0.23 mg/dL
  TOTAL PROTEIN: 5.7 G/DL
  URIC ACID: 1.93 mg/dL
[2]
  ABSOLUTE BASOPHIL: 0 CELLS/uL
  ABSOLUTE EOSINOPHIL: 0 CELLS/uL
  ABSOLUTE LYMPHOCYTE: 15298 CELLS/uL
  ABSOLUTE MONOCYTE: 225.33 CELLS/uL
  ABSOLUTE SEGMENTED NEUTROPHIL: 3076.67 CELLS/uL
  BASOPHIL: 0%
  EOSINOPHIL: 0%
  ERYTHROCYTE COUNT: 5.36 x10E6/uL
  HEMATOCRIT: 33.07%
  HEMOGLOBIN: 13.37 G/DL
  LEUKOCYTE COUNT: 18.6 x10E3/uL
  LYMPHOCYTE: 82.67%
  MEAN CORPUSCULAR HEMOGLOBIN: 25.03 pg
  MEAN CORPUSCULAR HEMOGLOBIN CONCENTRATION: 40.47 G/DL
  MEAN CORPUSCULAR VOLUME: 61.8 fL
  MONOCYTE: 1.33%
  NEUTROPHIL: 16%
  NUCLEATED RED BLOOD CELLS: 0 /100WBC
  PLATELET COUNT: 1154.33 x10E3/uL
  ALANINE AMINOTRANSFERASE: 60 u/L
  ALBUMIN: 4.03 G/DL
  ALKALINE PHOSPHATASE: 433.33 u/L
  ASPARTATE AMINOTRANSFERASE: 87 u/L
  BLOOD UREA NITROGEN: 18 mg/dL
  CARBON DIOXIDE: 30.33 mmol/L
  CHLORIDE: 95.67 MEQ/L
  CHOLESTEROL: 67.67 mg/dL
  CREATINE PHOSPHOKINASE: 211.67 u/L
  CREATININE: 0.15 mg/dL
  GLUCOSE: 165.67 mg/dL
  LACTATE DEHYDROGENASE: 122 u/L
  LIPASE: 9 u/L
  PHOSPHORUS: 12.87 mg/dL
  POTASSIUM: 6.96 MEQ/L
  SODIUM: 141.63 MEQ/L
  TOTAL BILIRUBIN: 0.23 mg/dL
  TOTAL PROTEIN: 5.77 G/DL
  URIC ACID: 1.4 mg/dL
[3]
  ABSOLUTE BASOPHIL: 0 CELLS/uL
  ABSOLUTE EOSINOPHIL: 0 CELLS/uL
  ABSOLUTE LYMPHOCYTE: 16336 CELLS/uL
  ABSOLUTE MONOCYTE: 67.33 CELLS/uL
  ABSOLUTE SEGMENTED NEUTROPHIL: 1396.67 CELLS/uL
  BASOPHIL: 0%
  EOSINOPHIL: 0%
  ERYTHROCYTE COUNT: 5.64 x10E6/uL
  HEMATOCRIT: 35.9%
  HEMOGLOBIN: 14.27 G/DL
  LEUKOCYTE COUNT: 17.8 x10E3/uL
  LYMPHOCYTE: 92%
  MEAN CORPUSCULAR HEMOGLOBIN: 25.3 pg
  MEAN CORPUSCULAR HEMOGLOBIN CONCENTRATION: 39.77 G/DL
  MEAN CORPUSCULAR VOLUME: 63.6 fL
  MONOCYTE: 0.33%
  NEUTROPHIL: 7.67%
  NUCLEATED RED BLOOD CELLS: 0 /100WBC
  PLATELET COUNT: 1293.33 x10E3/uL
  ALANINE AMINOTRANSFERASE: 45.33 u/L
  ALBUMIN: 4.33 G/DL
  ALKALINE PHOSPHATASE: 338.33 u/L
  ASPARTATE AMINOTRANSFERASE: 85 u/L
  BLOOD UREA NITROGEN: 15.67 mg/dL
  CARBON DIOXIDE: 30 mmol/L
  CHLORIDE: 100.67 MEQ/L
  CHOLESTEROL: 76 mg/dL
  CREATINE PHOSPHOKINASE: 311.33 u/L
  CREATININE: 0.22 mg/dL
  GLUCOSE: 154.33 mg/dL
  LACTATE DEHYDROGENASE: 98 u/L
  LIPASE: 9 u/L
  PHOSPHORUS: 11.73 mg/dL
  POTASSIUM: 6.62 MEQ/L
  SODIUM: 145.9 MEQ/L
  TOTAL BILIRUBIN: 0.27 mg/dL
  TOTAL PROTEIN: 6.1 G/DL
  URIC ACID: 1.9 mg/dL
